assay: gradient 5% acetonitrile 3 min, to 50% in 2 min, to 85% in 15 min, held 3 min, 100 µL/min; settings: column: Zorbax Extend-C18 2.1 x 50 mm; eluents: water / acetonitrile, 0.1% formic acid
Outline: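 Using water and acetonitrile that each contained 0.1% formic acid, mixtures of ~100 pure standards were separated at 100 μL/min on a Zorbax Extend-C18 column (2.1 × 50 mm, 1.8 μm). The HPLC fed a quadrupole time-of-flight mass spectrometer working in positive and negative ionization mode, with dead and dwell volumes of 40 μL and 900 μL. Data were acquired over 3 months. Retention time was read from computationally picked adduct peaks after manual inspection of each.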

Row | Compound | RP-LC retention time
1 | O=C(Nc1cccc(Cl)c1)C(=O)c1c[nH]c2ccccc12 | 1040 s
2 | O=C(Nc1c(F)c(F)c(F)c(F)c1F)c1cc2sccc2n1Cc1ccc(F)cc1 | 1180 s
3 | CCc1cccc(C)c1NS(=O)(=O)c1ccc(-c2c(C)noc2C)cc1 | 1020 s
4 | CC(=O)c1cc2c(cc1NC(=O)c1cn(Cc3ccc(C)cc3)nn1)OCO2 | 1030 s
5 | Cc1c(C(=O)N2CCCCC2)c(S(=O)(=O)N2CCN(c3ccccn3)CC2)c(C)n1C | 629 s
6 | O=C1C2N=NN(Cc3nc(-c4ccc5c(c4)OCO5)no3)C2C(=O)N1c1ccc2c(c1)OCO2 (stereo not drawn) | 899 s
7 | O=C(CCc1c(-c2ccc(F)cc2)nc2ccccn12)N1CCC2(CC1)OCCO2 | 615 s
8 | COc1cc([C@@H]2c3cc4c(cc3[C@H](O)[C@@H](CO)[C@@H]2C(=O)N2CCc3ccccc32)OCO4)cc(OC)c1OC | 771 s
9 | N#Cc1ccc(C(=O)N2CCN(c3nc(CN4CCCCC4)cs3)CC2)cc1 | 614 s
10 | NC(=O)COC1CCC12CCN(C(=O)C1CCCCC1)CC2 (stereo not drawn) | 715 s
11 | COc1cc(NC(=O)Nc2nccn(-c3ccc(C)c(Cl)c3)c2=O)cc(OC)c1 | 1060 s
12 | O=C(CN1C(=O)COc2ccc(C(=O)N3CCCC3)cc21)NCc1ccc2c(c1)OCO2 | 682 s
13 | CNC(=O)N1CCC(CCc2nc(C3CCOCC3)no2)CC1 | 648 s
14 | O=C(O)c1nnn(-c2cc(F)cc(F)c2)c1-c1ccccn1 | 680 s
15 | CCOCCCNC(=O)CN1C(=O)CCCc2ccccc21 | 681 s
16 | CCCn1cnc2ccc(-c3noc(CNC(=O)c4cccs4)n3)cc21 | 652 s
17 | Cc1ccc(-n2cc3c(c(C(=O)Nc4cccnc4)c2=O)CC(C)(C)CC3=O)cc1 | 734 s
18 | Cc1csc(-n2nc(C)c(CC(=O)Nc3ccccc3F)c2C)n1 | 938 s
19 | O=C(Nc1ccc(S(=O)(=O)N2CC3CC(C2)c2cccc(=O)n2C3)cc1)C1CC1 (stereo not drawn) | 631 s
20 | COc1ccc2c(c1)OC1(C)CC2C(S(=O)(=O)c2ccc(C)c(C)c2)C(=O)N1C (stereo not drawn) | 1030 s

Row | Compound | RP-LC retention time
21 | CCSCC[C@@H](NC(=O)CCc1c(C)c2ccc(O)c(C)c2oc1=O)C(=O)O | 680 s
22 | O=S(=O)(c1ccc(-c2nnc(C3CCC3)o2)o1)N1CCOCC1 | 780 s
23 | CCc1nc(-c2cc(S(=O)(=O)Nc3ccc(F)cc3Cl)c(C)s2)cs1 | 1130 s
24 | c1cc2c(cc1-c1noc(C3CCC3)n1)nnn2CCN1CCCCC1 | 654 s
25 | Cc1cccc(Cn2nc(-c3nc(-c4ccc(F)cc4)no3)ccc2=O)c1 | 1160 s
26 | O=C(CNC(=O)c1cccs1)Nc1nc2ccccc2[nH]1 | 599 s
27 | Cc1cnc(C2CCOCC2)n1CC1CN(C(=O)C2CC=CC2)C1 | 568 s
28 | O=C(Cn1nc2c3cc(F)ccc3ncn2c1=O)Nc1ccc(F)c(Cl)c1 | 706 s
29 | CCN(CCN(C)C)c1ccc(C(=O)O)cc1NS(=O)(=O)c1cccc(C)c1 | 620 s
30 | CCCCCNC(=O)CCc1nnc2c3cc(-c4ccc(C)c(C)c4)nn3ccn12 | 872 s
31 | CCCS(=O)(=O)c1nc2ccc(NS(=O)(=O)c3cc(F)ccc3F)cc2s1 | 918 s
32 | CC(C)n1c(=O)c(NCc2ccc(F)cc2Cl)nc2ccncc21 | 686 s
33 | Cc1ccc(-c2nc(-c3ccc4c(c3)nc(C)c(=O)n4C)no2)cc1F | 1150 s
34 | CCSc1nnc(-c2nn(C)c3c2CN(S(=O)(=O)c2cc(F)ccc2C)CC3)n1CC | 988 s
35 | Cc1occc1C(=O)Nc1nc(-c2ccc(C(C)(C)C)cc2)cs1 | 1300 s
36 | NC(=O)[C@@H]1CCCN1C(=O)[C@H](Cc1ccccc1)NC(=O)[C@@H]1CCCN1C(=O)[C@@H](N)Cc1ccc(O)cc1 | 584 s
37 | COc1ccc(C2(CNS(=O)(=O)c3ccc4c(c3)OCCO4)CCOCC2)cc1 | 785 s
38 | CCN1CCN(S(=O)(=O)c2cc(-c3nnc(C4CC4)o3)co2)CC1 | 587 s
39 | Cc1ccc(Cl)cc1NC(=O)CC1C(=O)NCCN1C(=O)NC1CCCCC1 (stereo not drawn) | 766 s

Further lines, results first:

Row | RP-LC retention time | Compound
40 | 787 s | COCCn1cc(CC(=O)Nc2cccc(SC)c2)c2cccnc21
41 | 1060 s | O=C(c1ccccc1C(F)(F)F)N1CCc2nc(-c3ccc(Cl)cc3)ncc2C1
42 | 643 s | CCCn1c(=O)sc2cc(S(=O)(=O)N3CCC(C(=O)NCc4cccnc4)CC3)ccc21
43 | 516 s | COc1ccc(NC(=O)Nc2cnc3c(c2)CCC3)cc1
44 | 1080 s | O=S(=O)(c1ccccc1Cl)N1CCc2nc(-c3ccccc3)ncc2C1
45 | 761 s | O=C(NCc1ccccc1)C1CCN(c2ccc(SCc3ccccc3)nn2)CC1
46 | 825 s | Cc1ccc(NC(=O)C2CCCN(c3ncnc4c3oc3ccccc34)C2)cc1 (stereo not drawn)
47 | 663 s | CC12CC(NC(=O)N1c1cccc(C(=O)N3CCOCC3)c1)c1ccccc1O2 (stereo not drawn)
48 | 713 s | COc1cc(-c2ccc(C)cc2)nc2ccc(NC(=O)c3ccco3)cc12
49 | 850 s | C#CCOCC1CCN(C(=O)CSCc2ccccc2)CC1
50 | 687 s | CN(C)c1ccc(-c2nc3ncccn3c2Nc2ccccc2)cc1
51 | 812 s | O=C(CCC(=O)N1CCCC1c1nc2ccccc2s1)N1CCN(c2ccccc2)CC1 (stereo not drawn)
52 | 823 s | O=C(CN1CCN(Cc2cccc(Cl)c2)C1=O)NCCc1cccs1
53 | 1080 s | CN(C)c1ccc(-c2nn3c(CSc4ccccc4)nnc3s2)cc1
54 | 820 s | COc1ccc(NC(=O)N2CCc3nc(-c4ccccc4)sc3C2)cc1OC
55 | 797 s | Cc1ccc(CNC(=O)N2CCC3(C2)C(=O)N(C)c2ccccc23)cc1 (stereo not drawn)
56 | 680 s | CCC1CCCCN1C(=O)c1cnc2nc(C)ccc2c1Nc1ccc(F)c(C)c1 (stereo not drawn)
57 | 700 s | CC(C)CCN1CCC(N(C(=O)NCCc2ccccc2)C2CCOCC2)CC1
58 | 726 s | Cc1ccc(Cn2cccc2C(=O)C(=O)N2CCN(c3ccccn3)CC2)cc1C
59 | 564 s | Cn1cc(C2c3nccn3CCCN2C(=O)c2cccn2C)cn1 (stereo not drawn)
60 | 633 s | O=C(CCc1ccccc1)NC1CCN(c2nnc3ccccn23)CC1
61 | 801 s | CCn1ccc(C(=O)Nc2ccccc2)n1
62 | 1010 s | C=Cc1ccc(Cn2nc3c(S(=O)(=O)N4CCN(c5ccc(F)cc5)CC4)cccn3c2=O)cc1
63 | 735 s | O=C(c1cccc(F)c1)N1CCC(n2c(-c3ccoc3)nc3cccnc32)C1 (stereo not drawn)
64 | 1030 s | Cc1ccc(-c2cc(NC(=O)Cc3ccccc3C)on2)s1

Row | RP-LC retention time | Compound
65 | 765 s | COc1ccc(-c2coc3cc(OCC(=O)O)ccc3c2=O)cc1
66 | 923 s | COc1ccc(COC(=O)C2=CN(Cc3ccc(OC)cc3)S(=O)(=O)N=C2C)cc1
67 | 958 s | CCOc1ccc(C2Cn3nnc(-c4nc(-c5ccncc5)no4)c3CO2)cc1 (stereo not drawn)
68 | 711 s | CC(C)CNC(=O)C1CCN(C(=O)c2ncn3c2COC(c2ccc(F)cc2)C3)CC1 (stereo not drawn)
69 | 1050 s | CC1(C)CC2CC(C)(CN2c2nc(-c3ccc([N+](=O)[O-])cc3)nc3ccccc23)C1 (stereo not drawn)
70 | 914 s | O=C(Nc1ccc(Br)cc1)c1ccc(S(=O)(=O)N2CCCC2)cc1
71 | 1190 s | Cc1ccc(S(=O)(=O)N2CCCCCC2)cc1-c1nnc(-c2ccccc2)o1
72 | 1170 s | Cc1ccc(-c2nc(C3CCN(S(=O)(=O)c4ccccc4F)CC3)no2)cc1
73 | 954 s | Cc1ccc(-c2cc3c4nnc(SCC(=O)NCCc5ccccc5)n4ccn3n2)cc1C
74 | 703 s | Cn1c2c(c3ccccc31)C(C(=O)NCc1ccc(F)cc1)N(Cc1cccnc1)C(=O)CS2 (stereo not drawn)
75 | 780 s | CCOC(=O)c1c(C)[nH]c(C(=O)N2CCCC(C(=O)NCc3ccc(OC)cc3)C2)c1C (stereo not drawn)
76 | 607 s | CCOC(=O)c1nc(NC2CCN(Cc3ccccc3)CC2)c2ccccc2n1
77 | 850 s | O=C(Cc1ccc(Cl)cc1)Nc1cc(-c2ccccn2)no1
78 | 734 s | Cn1cc(CC(=O)NCC2CCCCC2)c2cccnc21
79 | 909 s | CCc1nn2c(CNC(=O)c3cccc(F)c3)c(-c3ccccc3)nc2s1
80 | 1120 s | CCc1ccc(Oc2nccnc2N2CCC(C(=O)NC(C)c3ccccc3)CC2)cc1 (stereo not drawn)
81 | 869 s | Cc1ccc(N(C(=O)Cc2ccccc2)C2C=CS(=O)(=O)C2)cc1Cl (stereo not drawn)
82 | 1200 s | COc1ccc(C2Cn3nnc(-c4nc(-c5ccccc5C)no4)c3CO2)cc1 (stereo not drawn)
83 | 693 s | COc1cccc(NC(=O)C2CC(=O)N(c3ccc4c(c3)CCN4C(C)=O)C2)c1 (stereo not drawn)
84 | 643 s | O=C(Nc1nccs1)C1CCN(Cc2noc(-c3ccc(F)cc3)n2)CC1
85 | 1040 s | CCOc1ccc(N2C(=O)C3N=NN(Cc4nc(-c5ccc(C)cc5)no4)C3C2=O)cc1 (stereo not drawn)
86 | 624 s | Cc1cc(C)n(-c2ccnc(N3CCN(CC(=O)NC(C)C)CC3)n2)n1
87 | 953 s | CCOC(=O)C1CCN(c2nnc(-c3nc(C4CC4)no3)c3ccccc23)CC1
88 | 589 s | CCc1nc2cccnc2n1-c1ccc(C(=O)N(C)C)cc1
